Laboratory results taken from patent publication US11508483B2, “Method of identifying a subgroup of patients suffering from dcSSc which benefits from a treatment with sGC stimulators and sGC activators in a higher degree than a control group” (ADVERIO PHARMA GMBH, priority 2018, dated 2022).

Columns and labels:
[1] = system: human dermal fibroblasts of SSc patients; details: in vitro; cited from earlier work
[2] = system: TGFβ-induced skin fibrosis; details: mouse, in vivo; cited from earlier work
[3] = system: patients with dcSSc; assay: RISE-SSc clinical study: lung function, FVC % predicted; assay type: in vivo, human; details: for Difference in LSMeans with regard to FVC % predicted: Riociguat vs placebo, week 52
Source text: Pulmonary physiologic measures, particularly FVC, have frequently been used as surrogate endpoints for SSc-ILD and IPF. […] Also in IPF measurable decline in FVC is correlated with mortality. […] The primary efficacy outcome measure was the change in mRSS from baseline to week 52. Key secondary efficacy measure was Combined Response Index for Systemic Sclerosis (CRISS).

[4] = system: patients with dcSSc; assay: RISE-SSc clinical study: modified Rodnan skin score (mRSS); assay type: in vivo, human; design: key to Difference in LSMeans with regard to mRSS: mRSS points (skin thickness score, max 51); details: for Difference in LSMeans with regard to mRSS: Riociguat vs placebo, week 52; for mean change of mRSS for Riociguat compared to placebo: baseline to week 52
Source text: The modified Rodnan skin score (mRSS) is a measure of skin thickness and is used as a primary or secondary outcome measure in clinical trials of systemic sclerosis. The maximum mRSS possible is 51. Standardization of the modified Rodnan skin score for use in clinical trials of systemic sclerosis is described in Khanna, D. et al., 2017b. […] The primary efficacy outcome measure was the change in mRSS from baseline to week 52. Key secondary efficacy measure was Combined Response Index for Systemic Sclerosis (CRISS).

[5] = system: patients with dcSSc; assay: RISE-SSc clinical study: Health Assessment Questionnaire disability index (HAQ-DI); assay type: in vivo, human; details: Riociguat vs placebo, week 52
Procedure: The Health Assessment Questionnaire Disability Index (HAQ-DI) is a well-accepted measure of physical function for various rheumatic diseases, and it is the most widely employed and reported measure for assessing physical function in SSc. As a post hoc analysis in study 16277, the percentage of patients stratified by HAQ-DI categorized change was also performed. Clinically meaningful disease improvement was defined as a decrease in HAQ-DI of more than −0.21 from baseline to week 52; stabilization and/or disease worsening were defined as a change in HAQ-DI less than or equal to −0.21 from baseline to week 52. […] The primary efficacy outcome measure was the change in mRSS from baseline to week 52. Key secondary efficacy measure was Combined Response Index for Systemic Sclerosis (CRISS).

[6] = system: systemic sclerosis patients; details: cited from earlier work
[7] = subgroup FVC % predicted at baseline 50-75
[8] = subgroup FVC % predicted at baseline >75
[9] = subgroup anti-RNA polymerase III autoantibodies negative
[10] = subgroup anti-RNA polymerase III autoantibodies positive

Nc1nc(-c2nn(Cc3ccccc3F)c3ncccc23)ncc1C1CC1 [BAY 41-2272]
collagen production [1]: reduce collagen production
progression of TGFβ-induced skin fibrosis [2]: prevented the progression

COC(=O)N(C)c1c(N)nc(-c2nn(Cc3ccccc3F)c3ncccc23)nc1N [Riociguat, methyl 4,6-diamino-2-[1-(2-fluorobenzyl)-1H-pyrazolo[3,4-b]pyridin-3-yl]-5-pyrimidinyl(methyl)carbamate]
change of lung function (FVC % predicted) at week 52 compared to baseline ([3]; Riociguat group, dcSSc patients positive for anti-RNA polymerase III autoantibodies): +1.2
Difference in LSMeans with regard to FVC % predicted [3, 7]: 9.2
Difference in LSMeans with regard to FVC % predicted [3, 8]: −1.3
Difference in LSMeans with regard to FVC % predicted ([3]; subgroup ILD at baseline no): −1.7
Difference in LSMeans with regard to FVC % predicted ([3]; subgroup ILD at baseline yes): 5.1
Difference in LSMeans with regard to FVC % predicted [3, 9]: −0.9
Difference in LSMeans with regard to FVC % predicted [3, 10]: 3.5
Difference in LSMeans with regard to FVC % predicted ([3]; subgroup hsCRP >10 mg/L): 2.4
Difference in LSMeans with regard to FVC % predicted ([3]; subgroup hsCRP ≤10 mg/L): −0.5
collagen production [1]: reduce collagen production
Difference in LSMeans with regard to mRSS [4, 7]: −8.0
Difference in LSMeans with regard to mRSS [4, 8]: −1.7
Difference in LSMeans with regard to mRSS [4, 9]: 0.3
Difference in LSMeans with regard to mRSS [4, 10]: −10.5
Difference in LSMeans with regard to mRSS ([4]; subgroup hsCRP >3 mg/L): −5.8
Difference in LSMeans with regard to mRSS ([4]; subgroup hsCRP >10 mg/L): −7.5
Difference in LSMeans with regard to mRSS ([4]; subgroup hsCRP ≤3 mg/L): 1.0
Difference in LSMeans with regard to mRSS ([4]; subgroup hsCRP ≤10 mg/L): −1.2
mean change of mRSS for Riociguat compared to placebo ([4]; patients with FVC % predicted at baseline of 50-75): −7.9 units
mean change of mRSS for Riociguat compared to placebo ([4]; patients with hsCRP>10 mg/L): −7.5 units
mean change of mRSS for Riociguat compared to placebo ([4]; patients with hsCRP>3): −5.8 units
mean change of mRSS for Riociguat compared to placebo ([4]; patients ≥65 y of age): −6.7 units
Difference in LSMeans with regard to HAQ-DI [5, 7]: −0.22
Difference in LSMeans with regard to HAQ-DI [5, 8]: −0.07
Difference in LSMeans with regard to HAQ-DI [5, 9]: 0.02
Difference in LSMeans with regard to HAQ-DI [5, 10]: −0.44
Difference in LSMeans with regard to HAQ-DI ([5]; subgroup hsCRP >10 mg/L): −0.13
Difference in LSMeans with regard to HAQ-DI ([5]; subgroup hsCRP ≤10 mg/L): −0.03

Tocilizumab: monoclonal anti-IL-6 receptor-α antibody approved e.g. for the treatment of patients with rheumatoid arthritis
skin score and FVC in placebo-treated patients who transitioned to tocilizumab ([6]; open-label period): skin score improvement and FVC stabilization
influence of anti-RNA polymerase III autoantibody profile on the effect on change in mRSS or ppFVC ([6]; week 48): little clinically meaningful influence
